Data as given in patent publication US4767767A, “2-pyrrolidinylethyl-2-(7-trifluoromethyl-4-quinolyl-aminobenzoate having analgesic, antipyretic and anti-inflammatory activities” (Ferrer Internacional S.A., priority 1982, dated 1988).
Read-outs that look alike come from different tables or passages of the source.

Experiments:
Carrageenin test in rats = assay: anti-inflammatory activity, Carrageenin test in rats (Winter et al. 1962); type: in vivo, rat; conditions: read-out: Antiinflammatory activity
Excerpt: (§1) The compounds show an outstanding analgesic activity, especially upon oral application versus the brewer's yeast test in rat as described by Winter et al. (J. Pharm. Exp. Ther., 150(1), 165-171, 1965). Also these compounds have shown anti-inflammatory activity especially upon oral application versus the Carrageenin test in rats as described by Winter et al. (Proc. Soc. Exp. Biol. Med., 111, 544-547, 1962). The results for the analgesic evaluation are expressed as ED50 and those for the anti-inflammatory evaluation expressed as the activity rate observed on administering the compounds at a dose of 5 mg/kg.

[1] = test system: brewer's yeast test in rat; assay: analgesic activity, brewer's yeast test in rat (Winter et al. 1965); type: in vivo; conditions: read-out: Analgesic activity ED50
Excerpt: as §1

[2] = acute oral toxicity LD50 in mice (Reed-Muench method modified by Pizzi); conditions: mouse, in vivo; oral administration to mice; as free base
Excerpt: Moreover, the above compounds have shown a low toxicity which makes them useful in therapy. […] Evaluation was made according to the method by Reed-Muench as modified by Pizzi (Human & Biology, 22(3), 151-190, 1950) by oral administration to mice.

[3] = Carrageenin test, rat, oral, dose of 5 mg/kg, as free base
[4] = brewer's yeast test, rat, oral, as free base

Structure (SMILES): O=C(OCC1CCCCO1)c1ccccc1Nc1ccnc2cc(Cl)ccc12 (stereo not shown) [Example 14, 2-Tetrahydropyranylmethyl 2-(7-chloro-4-quinolyl)aminobenzoate]
- inhibition in vivo at 5 mg/kg (Carrageenin test in rats; [3]): 19.5%
- ED50 [1, 4]: 22 mg/kg

Structure (SMILES): O=C(OCCN1CCCC1)c1ccccc1Nc1ccnc2cc(Cl)ccc12 [Example 1, 2-Pyrrolidinylethyl 2-(7-chloro-4-quinolyl)aminobenzoate]
- LD50 [2]: 2000 mg/kg
- inhibition in vivo at 5 mg/kg (Carrageenin test in rats; [3]): 35.6%
- ED50 [1, 4]: 38 mg/kg

Structure (SMILES): O=C(OCC1CCCCO1)c1ccccc1Nc1ccnc2cc(C(F)(F)F)ccc12 (stereo not shown) [Example 15, 2-Tetrahydropyranylmethyl 2-(7-trifluoromethyl-4-quinolyl)aminobenzoate]
- inhibition in vivo at 5 mg/kg (Carrageenin test in rats; [3]): 26.1%
- ED50 [1, 4]: 9.3 mg/kg

Structure (SMILES): O=C(OCCN1CCCCCC1)c1ccccc1Nc1ccnc2cc(Cl)ccc12 [Example 5, 2-Homopiperidinylethyl 2-(7-chloro-4-quinolyl)aminobenzoate]
- inhibition in vivo at 5 mg/kg (Carrageenin test in rats; [3]): 17.3%
- ED50 [1, 4]: 5.4 mg/kg

Structure (SMILES): O=C(OC1OC(=O)c2ccccc21)c1ccccc1Nc1ccnc2cc(Cl)ccc12 (stereo not shown) [Example 20, 1(3H)-isobenzofuranone-3-yl 2-(7-chloro-4-quinolyl)aminobenzoate]
- inhibition in vivo at 5 mg/kg (Carrageenin test in rats; [3]): 26.2%
- ED50 [1, 4]: 71 mg/kg

Structure (SMILES): O=C(OC1OC(=O)c2ccccc21)c1ccccc1Nc1ccnc2cc(C(F)(F)F)ccc12 (stereo not shown) [Example 21, 1(3H)-isobenzofuranone-3-yl 2-(7-trifluoromethyl-4-quinolyl)aminobenzoate]
- inhibition in vivo at 5 mg/kg (Carrageenin test in rats; [3]): 38.4%
- ED50 [1, 4]: 26 mg/kg

Structure (SMILES): O=C(OCCN1CCN(c2cccc(C(F)(F)F)c2)CC1)c1ccccc1Nc1ccnc2cc(C(F)(F)F)ccc12 [Antrafenine, reference compound]
- inhibition in vivo at 5 mg/kg (Carrageenin test in rats; Rattus norvegicus, po): 3.6%
- ED50 ([1]; Rattus norvegicus, po): 43 mg/kg

Structure (SMILES): O=C(OCCOCCN1CCCCC1)c1ccccc1Nc1ccnc2cc(Cl)ccc12 [Example 9]
- inhibition in vivo at 5 mg/kg (Carrageenin test in rats; [3]): 33.2%
- ED50 [1, 4]: 21.7 mg/kg

Structure (SMILES): O=C(OCCOCCN1CCCC1)c1ccccc1Nc1ccnc2cc(Cl)ccc12 [Example 7, 2-(2-Pyrrolidineethoxy)ethyl 2-(7-chloro-4-quinolyl)aminobenzoate]
- inhibition in vivo at 5 mg/kg (Carrageenin test in rats; [3]): 5.1%
- ED50 [1, 4]: 18.5 mg/kg

Structure (SMILES): CC(=O)Oc1ccccc1C(=O)O [Acetylsalycilic acid, acetylsalicylic acid, reference compound]
- inhibition in vivo at 5 mg/kg (Carrageenin test in rats; Rattus norvegicus, po): 23.2%
- ED50 [1, 4]: 73 mg/kg

Structure (SMILES): O=C(OCCOCCN1CCCCCC1)c1ccccc1Nc1ccnc2cc(C(F)(F)F)ccc12 [Example 12, 2-(2-Homopiperidineethoxy)ethyl 2-(7-trifluoromethyl-4-quinolyl)aminobenzoate]
- inhibition in vivo at 5 mg/kg (Carrageenin test in rats; [3]): 28.8%
- ED50 [1, 4]: 6.6 mg/kg

Structure (SMILES): O=C(OCC(O)CO)c1ccccc1Nc1ccnc2c(C(F)(F)F)cccc12 (stereo not shown) [Floctafenine, reference compound]
- inhibition in vivo at 5 mg/kg (Carrageenin test in rats; [3]): 21.6%
- ED50 [1, 4]: 2.2 mg/kg

Structure (SMILES): O=C(OCOC(=O)c1ccccc1Nc1ccnc2cc(C(F)(F)F)ccc12)c1ccccc1 [Example 19, Benzoyloxymethyl 2-(7-trifluoromethyl-4-quinolyl)aminobenzoate]
- inhibition in vivo at 5 mg/kg (Carrageenin test in rats; [3]): 30.5%
- ED50 [1, 4]: 3.8 mg/kg

Structure (SMILES): O=C(OCOC(=O)c1ccccc1Nc1ccnc2cc(Cl)ccc12)c1ccccc1 [Example 18, Benzoyloxymethyl 2-(7-chloro-4-quinolyl)aminobenzoate]
- inhibition in vivo at 5 mg/kg (Carrageenin test in rats; [3]): 31%
- ED50 [1, 4]: 82.5 mg/kg

Structure (SMILES): O=C(OCCN1CCCCCC1)c1ccccc1Nc1ccnc2cc(C(F)(F)F)ccc12 [Example 6, 2-Homopiperidinylethyl 2-(7-trifluoromethyl-4-quinolyl)aminobenzoate]
- inhibition in vivo at 5 mg/kg (Carrageenin test in rats; [3]): 27.9%
- ED50 [1, 4]: 7 mg/kg

Structure (SMILES): O=C(OCCN1CCCC1)c1ccccc1Nc1ccnc2cc(C(F)(F)F)ccc12 [Example 2, 2-Pyrrolidinylethyl 2-(7-trifluoromethyl-4-quinolyl)aminobenzoate]
- LD50 [2]: 630 mg/kg
- inhibition in vivo at 5 mg/kg (Carrageenin test in rats; [3]): 38%
- ED50 [1, 4]: 2.9 mg/kg

Structure (SMILES): O=C(OCC(O)CO)c1ccccc1Nc1ccnc2cc(Cl)ccc12 (stereo not shown) [Glafenine, reference compound]
- LD50 [2]: 2100 mg/kg
- inhibition in vivo at 5 mg/kg (Carrageenin test in rats; Rattus norvegicus, po): 25.6%
- ED50 ([1]; Rattus norvegicus, po): 26.5 mg/kg

Structure (SMILES): O=C(OCCOCCN1CCCCCC1)c1ccccc1Nc1ccnc2cc(Cl)ccc12 [Example 11, 2-(2-Homopiperidineethoxy)ethyl 2-(7-chloro-4-quinolyl)aminobenzoate]
- inhibition in vivo at 5 mg/kg (Carrageenin test in rats; [3]): 21.2%
- ED50 [1, 4]: 13.3 mg/kg

Structure (SMILES): O=C(OCCN1CCCCC1)c1ccccc1Nc1ccnc2cc(Cl)ccc12 [Example 3, 2-Piperidinylethyl-2-(7-chloro-4-quinolyl)aminobenzoate]
- LD50 [2]: > 2000 mg/kg
- inhibition in vivo at 5 mg/kg (Carrageenin test in rats; [3]): 23.1%
- ED50 [1, 4]: 67 mg/kg

Structure (SMILES): O=C(OCCOCCN1CCCC1)c1ccccc1Nc1ccnc2cc(C(F)(F)F)ccc12 [Example 8, 2-(2-Pyrrolidineethoxy)ethyl 2-(7-trifluoromethyl-4-quinolyl)aminobenzoate]
- inhibition in vivo at 5 mg/kg (Carrageenin test in rats; [3]): 26.2%
- ED50 [1, 4]: 14.7 mg/kg

Structure (SMILES): O=C(OCOCc1ccccc1)c1ccccc1Nc1ccnc2cc(Cl)ccc12 [Example 16, Benzyloxymethyl 2-(7-chloro-4-quinolyl)aminobenzoate]
- LD50 [2]: > 8000 mg/kg
- inhibition in vivo at 5 mg/kg (Carrageenin test in rats; [3]): 27.7%
- ED50 [1, 4]: 6.3 mg/kg

Structure (SMILES): O=C(OCOCc1ccccc1)c1ccccc1Nc1ccnc2cc(C(F)(F)F)ccc12 [Example 17, Benzyloxymethyl 2-(7-trifluoromethyl-4-quinolyl)aminobenzoate]
- inhibition in vivo at 5 mg/kg (Carrageenin test in rats; [3]): 30.5%
- ED50 [1, 4]: 64.5 mg/kg

Structure (SMILES): O=C(OCCN1CCCCC1)c1ccccc1Nc1ccnc2cc(C(F)(F)F)ccc12 [Example 4, 2-Piperidinylethyl 2-(7-trifluoromethyl-4-quinolyl)aminobenzoate]
- LD50 [2]: 635 mg/kg
- inhibition in vivo at 5 mg/kg (Carrageenin test in rats; [3]): 23.2%
- ED50 [1, 4]: 3 mg/kg
